Reference: article PMC10675077, “Antimicrobial Properties of New Polyamines Conjugated with Oxygen-Containing Aromatic Functional Groups” (Molecules, 2023)
Read-outs that look alike come from different tables or passages of the source.

Experiments:
Type in all cases: cell-based
[1] = test system: Staphylococcus aureus BHI; assay: MIC, microdilution in culture medium, S. aureus; settings: Staphylococcus aureus, 20 h, read-out: MIC, Bacteria, S. aureus BHI
Source text: (§1) The microorganisms used for the susceptibility tests were the bacteria Escherichia coli JM101 and Staphylococcus aureus BHI, and the yeast Saccharomyces cerevisiae strains BY4741 (MAT a his3Δ1 leu2Δ0 met15Δ0 ura3Δ0 (EUROSCARF)) carrying YEplac195 (from EUROSCARF) or YEPlac195-PDR5 (provided by Ayse Banu Demir, Izmir University of Economics, Turkey) plasmids.
(§2) Bacterial strains were usually maintained and grown in an LB medium (0.5% (w/v) yeast extract, 1% (w/v) bactotryptone, and 1% (w/v) NaCl) at 37 °C. For MIC (minimal inhibitory concentration) and MMC (minimal microbicidal concentration) assays, and for the determination of synergies, overnight growth was carried out in 2% (w/v) bactopeptone (BP), and then the cultures were diluted and incubated for several hours in 2% (w/v) BP for ensuring logarithmic growth. Yeast strains were grown in an SC-ura medium (0.17% (w/v) yeast nitrogen base without amino acids and ammonium sulphate, 0.2% (w/v) drop-out without uracil, 0.5% (w/v) (NH4)2SO4, and 2% (w/v) glucose) at 30 °C. Liquid cultures were incubated with shaking (200 rpm). Solid media also contained 2% (w/v) agar.
(§3) For the analysis of the antimicrobial activity, the strategies and indications of Cushnie et al. were considered. The standardised method of microdilution in a culture medium was followed to determine the MIC [55]. In bacterial strains, serial dilutions of the compounds to be tested and the control antibiotics were prepared in phosphate buffer (20 mM, pH 7.4, 0.5 mL) and were mixed with a suspension of bacterial cells in a logarithmic growth phase (in 1% BP, 0.5 mL). The final OD600 of the whole solutions were 0.004 and 0.008 for E. coli and S. aureus cultures, respectively. After 20 h of incubation at 37 °C with shaking, the MIC was determined as the lowest concentration of each compound in which no visible bacterial growth was observed.

[2] = test system: Escherichia coli JM101; assay: MIC, microdilution in culture medium, E. coli; settings: Escherichia coli, read-out: MIC, Bacteria, E. coli JM101
Source text: as §1, §2, §3

[3] = test system: Saccharomyces cerevisiae BY4741/YEplac195; assay: microbe, parasite or virus in culture; settings: Saccharomyces cerevisiae, 24 h, read-out: MIC, Yeast, BY4741/ YEplac195
Source text: as §1, §2
(§4) The determination of the MIC for yeast strains was carried out following a similar procedure to that of the polyamines and antifungal reference agents: Serial dilutions of each one in phosphate buffer (20 mM, pH 7.4, 0.5 mL) were prepared and mixed with a suspension of yeast cells (OD600 0.04 in SC-ura 2X (VWR, Atlanta, GA, USA), 0.5 mL). […] Experiments were carried out at least three times in all cases.

[4] = test system: Saccharomyces cerevisiae BY4741/YEplac195-PDR5; assay: microbe, parasite or virus in culture; settings: Saccharomyces cerevisiae, 24 h, read-out: MIC, Yeast, BY4741/ PDR5
Source text: as §1, §2, §4

[5] = 37 °C, average of at least three experiments
[6] = JM101, 20 h, 37 °C, average of at least three experiments
[7] = 30 °C, average of at least three experiments

Compound | MIC [1] [µg/mL] | MIC ([2]; JM101, 20 h) [µg/mL] | MIC [3] [µg/mL] | MIC [4] [µg/mL] | MIC [1, 5] [µg/mL] | MIC [2, 6] [µg/mL] | MIC [3, 7] [µg/mL]
c1ccc2c(c1)OCO2 [1,3-Benzodioxole, reference compound] | > 500 | > 500 | > 500 | > 500 |  |  | 
O=C(O)c1cn(C2CC2)c2cc(N3CCNCC3)c(F)cc2c1=O [Ciprofloxacin, reference compound] |  |  |  |  | 0.1 | 0.04 | 
NCCCCNCCCN [Compound 1b, spermidine, reference compound] |  |  |  | > 400 | > 400 | 400 | > 400
NCCCNCCCCNCCCN [Compound 2b, spermine, reference compound] |  |  | > 400 | > 400 | 400 | 100 | 
NCCN(CCN)CCN [Compound 3b, reference compound] |  |  |  | > 400 | 400 | 250 | > 400
NCCCNCCN(CCNCCCN)CCNCCCN [Compound 4b] |  |  |  | > 400 | 250 | 400 | > 400
C[C@@H]1C[C@@H]([C@H](O)CC2CC(=O)NC(=O)C2)C(=O)[C@@H](C)C1 [Cycloheximide, reference compound] |  |  | 0.5 | 0.5 |  |  | 
CNC(C)C1CCC(N)C(OC2C(N)CC(N)C(OC3OCC(C)(O)C(NC)C3O)C2O)O1 (centres unmarked) [Gentamicin, reference compound] |  |  |  |  | 0.04 | 0.02 | 
